How the values were obtained:
Type in all cases: cell-based
[1] = system: HEL92.1.7; test: Cell growth inhibition assay, blood cancer cell line HEL92.1.7; settings: Homo sapiens, HEL 92.1.7, HEL92.1.7 blood cancer cell line
Method in brief: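 Cells were seeded at 3,000/well (HCT116, DU-145) or 5,000/well (SW626 and the others) and exposed to serial compound dilutions for 72 to 96 h at 37 °C under 5% CO2. Viability was read as CellTiter-Glo luminescence against 0.1% DMSO and cell-free wells.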

[2] = system: LNCaP; test: Cell growth inhibition assay, prostate cancer cell line LNCaP (medium with 10 ng/mL IL-6); settings: Homo sapiens, medium supplemented with 10 ng/mL of IL-6, 10,000 cells/well
[3] = system: MDA-MB-231; test: Cell growth inhibition assay, breast cancer cell line MDA-MB-231; settings: Homo sapiens; MDA-MB-231 breast cancer cell line, 5,000 cells/well
[4] = target: T1, STAT3 (Homo sapiens, UniProt P40763); test: STAT3 reporter gene assay (luciferase), LNCaP stable cell line (pSTAT3-TA-luc), IL-6 stimulation
T1 construct: plasmid pSTAT3-TA-luc), which contains a stably operating STAT3 promoter; endogenous in cells
Method in brief: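 Cytotoxicity was run on a duplicate plate with CellTiter-Glo, while the other plate gave luciferase read-outs from lysed LNCaP pSTAT3-TA-luc reporter cells. Cells were treated with graded compound concentrations plus IL-6 (10 ng/mL final) for 24–48 h in 3% DCC-FBS medium. Unstimulated and stimulated wells served as negative and positive controls.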

[5] = system: U266; test: Cell growth inhibition assay, blood cancer cell line U266; settings: Homo sapiens, U-266 blood cancer cell line
Description: (§1) The inhibitory effects of the compounds of the present invention against the growth of cancer cells were evaluated as shown below. The cancer cell lines including stomach cancer cell line (AGS), breast cancer cell lines (MDA-MB-231, MDA-MB-468, and BT-549), prostate cancer cell lines (LNCaP and DU-145), colon cancer cell line (HCT116), ovarian cancer cell line (SW626), liver cancer cell line (Hep3B), kidney cancer cell line (ACHN), lung cancer cell line (NCI-H23) and blood cancer cell lines (HEL92.1.7 and U266) were cultured under the protocol provided by each supplier. A medium supplemented with 10 ng/mL of IL-6 was used for LNCaP, a prostate cancer cell line, when treated with a drug. Each type of cells to be used in experiments were sub-cultured in a 96-well plate by counting the exact number of cells using Tali™ Image-based Cytometer (Life Technologies). In a 96-well plate, AGS, HCT116, and DU-145 were employed with 3,000 cells/well; NCI-H23, SW626, Hep3B, ACHN, BT-549, MDA-MB-231, HEL92.1.7, and U266 were employed with 5,000 cells/well; and LNCaP and MDA-MB-468 were employed with 10,000 cells/well. The cells were treated with the compounds listed in Examples which were diluted in various concentrations. Upon completion of the compounds treatment, AGS, HCT116, SW626, DU145, NCI-H23, Hep3B, ACHN, BT-549, LNCaP, HEL92.1.7, and U266 cells were cultured at 37° C. under 5% CO2 for from 72 to 96 hours, and MDA-MB-231 and MDA-MB-468 cells were cultured at 37° C. in air for from 72 to 96 hours. Subsequently, the cells were observed under microscope and drug precipitation and particular findings were investigated and recorded. And then, the 96-well plate was placed at room temperature for 30 minutes, added with 20 μL/well of CellTiter-Glo solution (Cat No. G7573, Promega) and shaken for 10 minutes, followed by being subjected to the measurement using PHERAstar™ microplate reader (BMG LABTECH) according to the supplier's general luminometer protocol. Wells where only culture liquid added without cell plating were used as a negative control, whereas wells where culture liquid containing 0.1% DMSO instead of the compounds listed in Examples were used as a positive control.

[6] = system: DU-145; test: Cell growth inhibition assay, prostate cancer cell line DU-145; settings: Homo sapiens, DU-145 prostate cancer cell line
Method in brief: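 Readout was CellTiter-Glo luminescence after 72–96 h of compound exposure at 37 °C, 5% CO2. Plating density was 3,000 cells/well for DU-145 and HCT116 and 5,000 cells/well for SW626. Controls were 0.1% DMSO wells and medium-only wells.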

[7] = system: Hep3B; test: Cell growth inhibition assay, liver cancer cell line Hep3B; settings: Homo sapiens
Description: as §1

[8] = system: ACHN; test: Cell growth inhibition assay, kidney cancer cell line ACHN; settings: Homo sapiens
Description: as §1, with “Wells where only culture liquid added without cell plating were used as a negative control, whereas wells where culture liquid containing 0.1% DMSO instead of the compounds listed in Examples were used as a positive control.” left out

[9] = system: SW626; test: Cell growth inhibition assay, ovarian cancer cell line SW626; settings: Homo sapiens
Description: as §1, with “Wells where only culture liquid added without cell plating were used as a negative control, whereas wells where culture liquid containing 0.1% DMSO instead of the compounds listed in Examples were used as a positive control.” left out

[10] = system: MDA-MB-468; test: Cell growth inhibition assay, breast cancer cell line MDA-MB-468; settings: Homo sapiens, MDA-MB-468 breast cancer cell line
Description: as §1

[11] = system: AGS; test: Cell growth inhibition assay, stomach cancer cell line AGS; settings: Homo sapiens; AGS stomach cancer cell line, 3,000 cells/well
[12] = system: HCT116; test: Cell growth inhibition assay, colon cancer cell line HCT116; settings: Homo sapiens, HCT-116 colon cancer cell line
Description: as §1, with “Wells where only culture liquid added without cell plating were used as a negative control, whereas wells where culture liquid containing 0.1% DMSO instead of the compounds listed in Examples were used as a positive control.” left out

[13] = system: BT-549; test: Cell growth inhibition assay, breast cancer cell line BT-549; settings: Homo sapiens, BT-549 breast cancer cell line
Description: as §1

[14] = system: NCI-H23; test: Cell growth inhibition assay, lung cancer cell line NCI-H23; settings: Homo sapiens
Description: as §1, with “Wells where only culture liquid added without cell plating were used as a negative control, whereas wells where culture liquid containing 0.1% DMSO instead of the compounds listed in Examples were used as a positive control.” left out

T1 sequence (P40763 whole entry): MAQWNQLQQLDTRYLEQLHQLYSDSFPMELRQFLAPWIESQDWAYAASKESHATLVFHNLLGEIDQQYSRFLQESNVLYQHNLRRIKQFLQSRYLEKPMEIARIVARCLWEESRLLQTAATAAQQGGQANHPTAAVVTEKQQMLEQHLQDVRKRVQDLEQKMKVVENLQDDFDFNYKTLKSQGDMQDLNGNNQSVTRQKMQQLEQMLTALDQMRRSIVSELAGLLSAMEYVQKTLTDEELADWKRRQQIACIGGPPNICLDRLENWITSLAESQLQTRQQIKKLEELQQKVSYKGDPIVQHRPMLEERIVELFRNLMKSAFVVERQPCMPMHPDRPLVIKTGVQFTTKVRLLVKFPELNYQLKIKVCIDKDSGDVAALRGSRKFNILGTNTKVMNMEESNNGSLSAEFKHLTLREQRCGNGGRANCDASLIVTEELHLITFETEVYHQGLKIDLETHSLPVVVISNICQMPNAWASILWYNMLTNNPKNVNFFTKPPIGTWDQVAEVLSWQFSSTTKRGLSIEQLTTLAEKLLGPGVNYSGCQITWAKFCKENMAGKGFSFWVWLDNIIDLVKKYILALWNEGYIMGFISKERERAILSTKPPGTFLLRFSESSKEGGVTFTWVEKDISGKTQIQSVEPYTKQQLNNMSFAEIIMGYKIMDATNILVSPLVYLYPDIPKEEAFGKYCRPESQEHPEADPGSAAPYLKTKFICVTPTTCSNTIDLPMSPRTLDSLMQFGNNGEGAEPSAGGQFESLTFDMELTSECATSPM

| Compound | IC50 [1] | IC50 [2] | IC50 [3] | IC50 [4] | IC50 [5] | IC50 [6] | IC50 [7] | IC50 [8] | IC50 [9] | IC50 [10] | IC50 [11] | IC50 [12] | IC50 [13] | IC50 [14] |
| --- | --- | --- | --- | --- | --- | --- | --- | --- | --- | --- | --- | --- | --- | --- |
| CCOc1cc(OC(F)(F)F)cc(C(C)(C)c2cc(Br)cc(NC(=O)c3cc4ccc(NS(C)(=O)=O)cc4[nH]3)c2)c1 [Example 22, N-(3-bromo-5-(2-(3-ethoxy-5-(trifluoromethoxy)phenyl)propan-2-yl)phenyl)-6-(methylsulfonamido)-1H-indole-2-carboxamide] | 0.13 µM | 0.29 µM | 0.007 µM | 0.11 µM | 0.13 µM | 0.048 µM | – | – | – | – | – | – | – | – |
| COc1cc(OC(F)(F)F)cc(C(C)(C)c2cc(Br)cc(NC(=O)c3cc4cnc(NS(C)(=O)=O)cc4[nH]3)c2)c1 [Example 98, N-(3-bromo-5-(2-(3-methoxy-5-(trifluoromethoxy)phenyl)propan-2-yl)phenyl)-6-(methylsulfonamido)-1H-pyrrolo[3,2-c]pyridine-2-carboxamide] | 0.86 µM | 0.76 µM | 0.59 µM | 0.098 µM | 0.56 µM | 0.31 µM | – | – | – | – | – | – | – | – |
| COc1cc(OC(F)(F)F)cc(C(C)(C)c2cc(Br)cc(NC(=O)c3cc4ccc(NS(C)(=O)=O)cc4[nH]3)c2)c1 [Example 16, N-(3-bromo-5-(2-(3-methoxy-5-(trifluoromethoxy)phenyl)propan-2-yl)phenyl)-6-(methylsulfonamido)-1H-indole-2-carboxamide] | 0.14 µM | 0.48 µM | 0.025 µM | 0.112 µM | 0.25 µM | 0.024 µM | 2.1 µM | 0.004 µM | 0.066 µM | 0.02 µM | 0.044 µM | 0.31 µM | 0.26 µM | 0.3 µM |
| CC(C)(c1cccc(CN2CCOCC2)c1)c1cc(Br)cc(NC(=O)c2cc3cc(NS(C)(=O)=O)ccc3s2)c1 [Example 50, N-(3-bromo-5-(2-(3-(morpholinomethyl)phenyl)propan-2-yl)phenyl)-5-(methylsulfonamido)benzo[b]thiophene-2-carboxamide] | 0.83 µM | 0.76 µM | 0.24 µM | 0.15 µM | 0.84 µM | 0.36 µM | – | – | – | – | – | – | – | – |
| CC(C)(C)OC(=O)N1CCN(Cc2cccc(C(C)(C)c3cc(Br)cc(NC(=O)c4cc5cc(NS(C)(=O)=O)ccc5s4)c3)c2)CC1 [Example 116, tert-butyl 4-(3-(2-(3-bromo-5-(5-(methylsulfonamido)benzo[b]thiophene-2-carboxamido)phenyl)propan-2-yl)benzyl)piperazine-1-carboxylate] | 0.13 µM | 0.22 µM | 0.055 µM | 0.053 µM | 0.16 µM | 0.058 µM | – | – | – | – | – | – | – | – |
| COc1cc(OC(F)(F)F)cc(C(C)(C)c2cccc(NC(=O)c3cc4ccc(NS(C)(=O)=O)cc4[nH]3)c2)c1 [Example 9, N-(3-(2-(3-methoxy-5-(trifluoromethoxy)phenyl)propan-2-yl)phenyl)-6-(methylsulfonamido)-1H-indole-2-carboxamide] | 0.95 µM | 0.78 µM | 0.012 µM | 0.056 µM | 0.74 µM | 0.035 µM | – | – | – | – | – | – | – | – |

Now from value to compound:

| IC50 [1] | IC50 [2] | IC50 [3] | IC50 [4] | IC50 [5] | IC50 [6] | IC50 [7] | IC50 [8] | IC50 [9] | IC50 [10] | IC50 [11] | IC50 [12] | IC50 [13] | IC50 [14] | Compound |
| --- | --- | --- | --- | --- | --- | --- | --- | --- | --- | --- | --- | --- | --- | --- |
| 0.023 µM | 0.049 µM | 0.001 µM | 0.007 µM | 0.014 µM | 0.007 µM | – | – | – | – | – | – | – | – | CC(C)Oc1cc(OC(F)(F)F)cc(C(C)(C)c2cc(Br)cc(NC(=O)c3cc4cc(NS(C)(=O)=O)ccc4s3)c2)c1 [Example 49, N-(3-bromo-5-(2-(3-isopropoxy-5-(trifluoromethoxy)phenyl)propan-2-yl)phenyl)-5-(methylsulfonamido)benzo[b]thiophene-2-carboxamide] |
| 0.27 µM | 0.21 µM | 0.005 µM | 0.027 µM | 0.22 µM | 0.006 µM | 2.2 µM | < 0.00085 µM | 0.013 µM | < 0.0076 µM | 0.009 µM | < 0.072 µM | 0.043 µM | < 0.21 µM | COc1cc(OC(F)(F)F)cc(C(C)(C)c2cc(Br)cc(NC(=O)c3cc4cc(NS(C)(=O)=O)ccc4s3)c2)c1 [Example 36, N-(3-bromo-5-(2-(3-methoxy-5-(trifluoromethoxy)phenyl)propan-2-yl)phenyl)-5-(methylsulfonamido)benzo[b]thiophene-2-carboxamide] |
| 0.2 µM | 0.24 µM | 0.007 µM | 0.051 µM | 0.29 µM | 0.023 µM | 0.028 µM | – | – | < 0.00064 µM | – | – | 3.4 µM | – | COc1cc(NC(=O)c2cc3cc(NS(C)(=O)=O)ccc3s2)cc(C(C)(C)c2cc(OC)cc(OC(F)(F)F)c2)c1 [Example 34, N-(3-methoxy-5-(2-(3-methoxy-5-(trifluoromethoxy)phenyl)propan-2-yl)phenyl)-5-(methylsulfonamido)benzo[b]thiophene-2-carboxamide] |
| 0.024 µM | 0.019 µM | 0.041 µM | 0.011 µM | 0.019 µM | 0.006 µM | – | – | – | – | – | – | – | – | CC(C)Oc1cc(OC(F)(F)F)cc(C(C)(C)c2cc(Cl)cc(NC(=O)c3cc4cc(NS(C)(=O)=O)ccc4s3)c2)c1 [Example 68, N-(3-chloro-5-(2-(3-isopropoxy-5-(trifluoromethoxy)phenyl)propan-2-yl)phenyl)-5-(methylsulfonamido)benzo[b]thiophene-2-carboxamide] |
| 0.044 µM | 0.032 µM | 0.005 µM | 0.007 µM | 0.023 µM | 0.009 µM | – | – | – | – | – | – | – | – | COc1cc(OC(F)(F)F)cc(C(C)(C)c2cc(Cl)cc(NC(=O)c3cc4cc(NS(C)(=O)=O)ccc4s3)c2)c1 [Example 42, N-(3-chloro-5-(2-(3-methoxy-5-(trifluoromethoxy)phenyl)propan-2-yl)phenyl)-5-(methylsulfonamido)benzo[b]thiophene-2-carboxamide] |
| 0.12 µM | 0.083 µM | 0.027 µM | 0.051 µM | 0.13 µM | 0.044 µM | – | – | – | – | – | – | – | – | COc1cc(OC(F)(F)F)cc(C(C)(C)c2cc(Cl)cc(NC(=O)c3cc4ccc(NS(C)(=O)=O)cc4[nH]3)c2)c1 [Example 24, N-(3-chloro-5-(2-(3-methoxy-5-(trifluoromethoxy)phenyl)propan-2-yl)phenyl)-6-(methylsulfonamido)-1H-indole-2-carboxamide] |

— patent publication US10562912B2 (C&C Research Laboratories, priority 2013, dated 2020)
